# From patent US20140039008A1, “METHODS FOR THE ADMINISTRATION OF ILOPERIDONE” (VANDA PHARMACEUTICALS, INC., priority 2004, published 2014)
# Tests used:
# [1] = Example 1: blood concentrations of P88 and P95 after iloperidone by CYP2D6 genotype, with and without inhibitor; type: in vivo, human; set-up: unit not given here; conditions: at Tmax of P88, without inhibitor
# Text: The research leading to the present invention was designed to examine the effect of different doses of iloperidone relative to the effect of ziprasidone and quetiapine on QTc duration under carefully controlled conditions. To further evaluate the possible relationship between exposure to iloperidone and the comparators to QTc duration, reassessment after pharmacological inhibition of the principle metabolic pathways for each drug, under steady-state conditions, was also planned.
# Blood samples for pharmacogenetic analysis were collected at screening. Two polymorphisms previously associated with poor metabolizing status were genotyped in the CYP2D6 locus, and 251 genotypes were collected. The individual genotypes were studied for detection of association between genotype class and concentrations of iloperidone and its metabolites P88 and P95. The functional effect of the polymorphisms was also evaluated by analyzing the effect of the addition of the CYP2D6 inhibitor paroxetine on the concentrations of the parent drug and its metabolites.
# The addition of metabolic inhibitors in this study therefore allowed for an evaluation of the effect of increasing blood-concentration of iloperidone and/or its metabolites on QT duration. More specifically, this study allowed for an evaluation of the effect of iloperidone on QTc before and after the addition of the CYP2D6 inhibitor, paroxetine, as well as before and after the addition of the CYP3A4 inhibitor, ketoconazole.
# 128 individuals consented to the pharmacogenetic study. Blood samples were collected according to the pharmacogenetics protocol and after the consent of patients. The DNA was extracted from whole blood by Covance using the PUREGENE DNA isolation kit (D-50K).
# The 128 individuals that participated were a good representation of the total sample of 165 individuals that participated in the trial. 22 of 29 total were from the iloperidone 8 mg bid group, 30 of 34 were from the iloperidone 12 mg bid group, 22 of 31 from the 24 mg qd group, 3 of 5 of the risperidone group, 28 of 33 of the ziprazidone group, and 23 of 33 of the quetiapine group.
# The genotype effect of the two CYP2D6 polymorphisms on period 1 concentrations was evaluated using the following ANOVA model. Concentrations of iloperidone, P88, and P95 at Period 1, without inhibitor, at the time at which maximum blood concentration of the parent compound or metabolite was reached (Tmax) were used as the dependent variable, the genotypes of each polymorphism as classes and the treatment as a covariate. In order to adjust for treatment effects after the single dose of iloperidone, the 8 mg bid was coded as 8, the 12 mg bid as 12 and the 24 mg qd as 24.
# The function of these polymorphisms on the degree of inhibition of the CYP2D6 enzyme was calculated from the ratio of concentrations of P88 and P95 in period 2, after the addition of the inhibitor of CYP2D6. The concentrations of iloperidone and/or its metabolites (e.g., P88 and P95) may be determined in period 1 and/or period 2 by any known or later-developed method or device, including titration.
# In order to understand the functional significance of the two CYP2D6 polymorphisms on the activity of the enzyme, the association of the various genotypes with the relative concentrations of the metabolites P88 and P95 were examined. It is known that P88 is degraded by CYP2D6 and that CYP2D6 is involved in the synthesis of P95. The relative amounts of P88 and P95 would therefore be controlled by the activity of the CYP2D6 enzyme. The ratio of P88/P95 was calculated before inhibition in Period 1 and at the Tmax of the two metabolites, as well as the ratio of P88/P95 in Period 2 after the addition of the CYP2D6 inhibitor paroxetine. In individuals with the wild type enzyme the concentration of P88 is expected to increase in Period 2, while in the same period the concentration of P95 is expected to decline.
# [2] = interaction study: addition of CYP2D6 inhibitor fluoxetine, AUC; conditions: addition of CYP2D6 inhibitor fluoxetine along with iloperidone
# HERG channel = HERG channel (Homo sapiens, UniProt Q12809); assay: affinity for the HERG channel; type: binding
# Chain of HERG channel (Q12809 whole entry): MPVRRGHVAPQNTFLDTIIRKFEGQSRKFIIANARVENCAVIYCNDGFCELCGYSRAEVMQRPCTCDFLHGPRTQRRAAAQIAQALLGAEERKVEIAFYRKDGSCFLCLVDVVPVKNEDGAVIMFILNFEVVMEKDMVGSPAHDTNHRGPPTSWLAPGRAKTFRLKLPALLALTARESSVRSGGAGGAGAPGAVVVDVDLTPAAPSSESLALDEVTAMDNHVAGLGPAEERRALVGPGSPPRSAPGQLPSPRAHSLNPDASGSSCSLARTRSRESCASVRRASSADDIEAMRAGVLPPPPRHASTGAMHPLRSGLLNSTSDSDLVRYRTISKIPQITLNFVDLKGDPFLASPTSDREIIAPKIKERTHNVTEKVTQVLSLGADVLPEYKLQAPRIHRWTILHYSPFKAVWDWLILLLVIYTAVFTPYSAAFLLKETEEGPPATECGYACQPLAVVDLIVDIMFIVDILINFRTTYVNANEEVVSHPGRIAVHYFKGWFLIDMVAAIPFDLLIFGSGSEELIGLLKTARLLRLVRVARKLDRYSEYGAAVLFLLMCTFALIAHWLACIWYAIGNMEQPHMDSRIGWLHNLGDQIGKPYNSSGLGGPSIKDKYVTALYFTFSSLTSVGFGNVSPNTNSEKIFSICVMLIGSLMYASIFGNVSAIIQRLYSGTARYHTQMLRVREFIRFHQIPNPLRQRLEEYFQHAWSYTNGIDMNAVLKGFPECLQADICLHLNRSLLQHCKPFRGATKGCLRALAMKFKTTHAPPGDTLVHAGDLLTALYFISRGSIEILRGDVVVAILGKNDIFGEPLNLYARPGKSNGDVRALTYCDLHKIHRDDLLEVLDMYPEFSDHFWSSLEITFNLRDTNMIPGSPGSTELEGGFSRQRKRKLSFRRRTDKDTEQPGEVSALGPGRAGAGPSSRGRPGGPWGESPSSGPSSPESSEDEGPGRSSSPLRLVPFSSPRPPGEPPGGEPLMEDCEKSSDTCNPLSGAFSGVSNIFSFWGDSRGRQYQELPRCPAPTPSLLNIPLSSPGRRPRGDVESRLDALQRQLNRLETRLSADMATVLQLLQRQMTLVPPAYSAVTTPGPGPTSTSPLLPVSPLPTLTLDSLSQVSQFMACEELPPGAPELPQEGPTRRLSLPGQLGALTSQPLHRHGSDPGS
# lipophilicity = type: physicochemical; conditions: compared to iloperidone
"P88 concentrations in Period 1, LSMeans ([1]; CYP2D6C100T CC)","P88 concentrations in Period 1, LSMeans ([1]; CYP2D6C100T CT)","P88 concentrations in Period 1, LSMeans ([1]; CYP2D6C100T TT)","P88 concentrations in Period 1, LSMeans ([1]; CYP2D6G1846A AA)","P88 concentrations in Period 1, LSMeans ([1]; CYP2D6G1846A AG)","P88 concentrations in Period 1, LSMeans ([1]; CYP2D6G1846A GG)",increase of the area under the curve (AUC) [2] [%],lipophilicity (lipophilicity),SMILES,affinity for the HERG channel (HERG channel)
21.03,33.16,51.00,62.70,31.40,21.03,119,–,COc1cc(C(C)O)ccc1OCCCN1CCC(c2noc3cc(F)ccc23)CC1 (stereo not drawn) [P88],–
–,–,–,–,–,–,–,less lipophilic,COc1cc(C(=O)O)ccc1OCCCN1CCC(c2noc3cc(F)ccc23)CC1 [P95],very low affinity
